For 20 molecules, T/C results are on record in PubChem BioAssay AID270 (DTP/NCI, 2004).

Where “and” joins values, the source holds several entries; their conditions need not be identical. Equal entries are not always repeated. Results filed as inconclusive are left out.

The assay has as its system BDF1 mice, s.c. Lewis lung carcinoma, T/C %. The experiment in a line: NCI In Vivo Anticancer Drug Screen. Data for tumor model Lewis Lung Carcinoma (subcutaneous) in B6D2F1 (BDF1) mice. Put shortly:
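Antitumor effect in vivo is scored from survival or tumor burden, reported as treated relative to vehicle controls.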

Where [1] appears, read: endpoint: mean tumor weight, dose: 25.0 mg/kg/injection, schedule: Q01DX011 (ip), vehicle: saline, higher = larger tumour.
Where [2] appears, read: endpoint: mean tumor weight, dose: 50.0 mg/kg/injection, schedule: Q01DX011 (ip), vehicle: saline, higher = larger tumour.
The mark [3] stands for this setting: endpoint: mean tumor weight, dose: 100.0 mg/kg/injection, schedule: Q01DX011 (ip), vehicle: saline, higher = larger tumour.
[4] abbreviates: endpoint: mean tumor weight, dose: 200.0 mg/kg/injection, schedule: Q01DX011 (ip), vehicle: saline, higher = larger tumour.
Where [5] appears, read: endpoint: mean tumor weight, dose: 400.0 mg/kg/injection, schedule: Q01DX011 (ip), vehicle: saline, higher = larger tumour.

As for `CS(=O)(=O)OCCCCOS(C)(=O)=O`, the T/C (endpoint: mean tumor weight, dose: 12.5 mg/kg/injection, schedule: Q01DX011 (ip), vehicle: carboxymethylcellulose (CMC), higher = larger tumour) is 91 % of control and 104 % of control; the T/C (endpoint: median survival time, dose: 10.0 mg/kg/injection, schedule: Q01DX009 (ip), vehicle: Klucel (hydroxypropylcellulose) (HPC), higher = longer survival) was 94 % of control; the T/C (endpoint: median survival time, dose: 10.0 mg/kg/injection, schedule: Q01DX009 (ip), vehicle: saline with Tween-80, higher = longer survival) was 100 % of control; the T/C (endpoint: median survival time, dose: 20.0 mg/kg/injection, schedule: Q01DX009 (ip), vehicle: saline with Tween-80, higher = longer survival) is 93 % of control; the T/C (endpoint: median survival time, dose: 40.0 mg/kg/injection, schedule: Q01DX009 (ip), vehicle: Klucel (hydroxypropylcellulose) (HPC), higher = longer survival) was 92 % of control; the T/C (endpoint: median tumor weight (est.), dose: 10.0 mg/kg/injection, schedule: Q01DX009 (ip), vehicle: saline with Tween-80, higher = larger tumour) was 86 % of control. The T/C is 80 % of control (endpoint: median tumor weight (est.), dose: 20.0 mg/kg/injection, schedule: Q01DX009 (ip), vehicle: saline with Tween-80, higher = larger tumour) and 45 % of control (endpoint: median tumor weight (est.), dose: 40.0 mg/kg/injection, schedule: Q01DX009 (ip), vehicle: saline with Tween-80, higher = larger tumour).
As for `OCC(Br)CBr` (stereo not drawn), the T/C (endpoint: mean tumor weight, dose: 37.0 mg/kg/injection, schedule: Q01DX011 (ip), vehicle: other, higher = larger tumour) was 97 % of control and the T/C (endpoint: mean tumor weight, dose: 55.0 mg/kg/injection, schedule: Q01DX011 (ip), vehicle: other, higher = larger tumour) was 66 % of control.
`CC[C@H]1CN2CCc3cc(OC)c(OC)cc3[C@@H]2C[C@@H]1C[C@H]1NCCc2cc(OC)c(OC)cc21`: the T/C (endpoint: mean tumor weight, dose: 1.5 mg/kg/injection, schedule: Q01DX011 (ip), vehicle: saline, higher = larger tumour) was 86 % of control.
For `CC(=O)Nc1c(Cl)cc2c(c1Cl)Cc1cc([N+](=O)[O-])ccc1-2`, the T/C reads like this: (endpoint: mean tumor weight, dose: 20.0 mg/kg/injection, schedule: Q01DX011 (ip), vehicle: carboxymethylcellulose (CMC), higher = larger tumour) 55 % of control; (endpoint: mean tumor weight, dose: 40.0 mg/kg/injection, schedule: Q01DX011 (ip), vehicle: carboxymethylcellulose (CMC), higher = larger tumour) 32 % of control.
Consider `CCC[C@H]1CCCCN1`, for which the T/C under setting [1] was 88 % of control.
On to `CC(C)C1=CCC2C(=C1)CCC1C(C)(C(=O)O)CCCC21C` (stereo not drawn) (tested in a mixture with another compound), for which the T/C by setting is: under setting [2], 72 % of control; under setting [3], 75 % of control; under setting [4], 57 % of control; under setting [5], 45 % of control.
For the molecule `Nc1nc(N)c(N=O)c(Nc2ccc(Cl)c(Cl)c2)n1`, the T/C (endpoint: mean tumor weight, dose: 100.0 mg/kg/injection, schedule: Q01DX011 (ip), vehicle: carboxymethylcellulose (CMC), higher = larger tumour) was 23 % of control and 32 % of control; the T/C (endpoint: mean tumor weight, dose: 200.0 mg/kg/injection, schedule: Q01DX011 (ip), vehicle: carboxymethylcellulose (CMC), higher = larger tumour) is 31 % of control and 52 % of control; the T/C (endpoint: mean tumor weight, dose: 400.0 mg/kg/injection, schedule: Q01DX011 (ip), vehicle: carboxymethylcellulose (CMC), higher = larger tumour) is 32 % of control and 46 % of control.
On to `CCCCCC/C=C/C#CCCCCCCCC(=O)O`, for which the T/C is 97 % of control (endpoint: median survival time, dose: 18.75 mg/kg/injection, schedule: Q01DX009 (ip), vehicle: Klucel (hydroxypropylcellulose) (HPC), higher = longer survival); 90 % of control and 91 % of control (endpoint: median survival time, dose: 37.5 mg/kg/injection, schedule: Q01DX009 (ip), vehicle: Klucel (hydroxypropylcellulose) (HPC), higher = longer survival); 102 % of control and 111 % of control (endpoint: median survival time, dose: 75.0 mg/kg/injection, schedule: Q01DX009 (ip), vehicle: Klucel (hydroxypropylcellulose) (HPC), higher = longer survival).
As for `O=C1C=Cc2ccc(O)cc2C1=O`, the T/C is 104 % of control (endpoint: mean tumor weight, dose: 0.57 mg/kg/injection, schedule: Q01DX011 (ip), vehicle: saline, higher = larger tumour); 81 % of control (endpoint: mean tumor weight, dose: 0.86 mg/kg/injection, schedule: Q01DX011 (ip), vehicle: saline, higher = larger tumour); 59 % of control (endpoint: mean tumor weight, dose: 1.3 mg/kg/injection, schedule: Q01DX011 (ip), vehicle: saline, higher = larger tumour); 60 % of control (endpoint: mean tumor weight, dose: 2.0 mg/kg/injection, schedule: Q01DX011 (ip), vehicle: saline, higher = larger tumour).
As to `CCCCCCCCCCCCO[P+](=O)OCCCCCCCCCCCC`, the T/C is, setting by setting: (endpoint: mean tumor weight, dose: 50.0 mg/kg/injection, schedule: Q01DX011 (ip), vehicle: other, higher = larger tumour) 122 % of control; (endpoint: mean tumor weight, dose: 100.0 mg/kg/injection, schedule: Q01DX011 (ip), vehicle: other, higher = larger tumour) 98 % of control; (endpoint: mean tumor weight, dose: 200.0 mg/kg/injection, schedule: Q01DX011 (ip), vehicle: other, higher = larger tumour) 76 % of control; (endpoint: mean tumor weight, dose: 400.0 mg/kg/injection, schedule: Q01DX011 (ip), vehicle: other, higher = larger tumour) 65 % of control; under setting [5], 36 % of control; (endpoint: mean tumor weight, dose: 600.0 mg/kg/injection, schedule: Q01DX011 (ip), vehicle: saline, higher = larger tumour) 19 % of control. The T/C is, setting by setting: (endpoint: mean tumor weight, dose: 900.0 mg/kg/injection, schedule: Q01DX011 (ip), vehicle: saline, higher = larger tumour) 21 % of control; (endpoint: median survival time, dose: 50.0 mg/kg/injection, schedule: Q01DX009 (ip), vehicle: saline, higher = longer survival) 108 % of control; (endpoint: median survival time, dose: 100.0 mg/kg/injection, schedule: Q01DX009 (ip), vehicle: saline, higher = longer survival) 99 % of control.
As for `CC[C@H](CC[C@@H](C)[C@H]1CC[C@H]2[C@@H]3CC=C4C[C@@H](O)CC[C@]4(C)[C@H]3CC[C@]12C)C(C)C`, the T/C is, setting by setting: (endpoint: mean tumor weight, dose: 15.0 mg/kg/injection, schedule: Q01DX011 (ip), vehicle: water, higher = larger tumour) 72 % of control; (endpoint: mean tumor weight, dose: 25.0 mg/kg/injection, schedule: Q01DX011 (ip), vehicle: water, higher = larger tumour) 74 % of control; (endpoint: mean tumor weight, dose: 40.0 mg/kg/injection, schedule: Q01DX011 (ip), vehicle: water, higher = larger tumour) 47 % of control; (endpoint: mean tumor weight, dose: 100.0 mg/kg/injection, schedule: Q01DX011 (ip), vehicle: water, higher = larger tumour) 47 % of control; (endpoint: mean tumor weight, dose: 150.0 mg/kg/injection, schedule: Q01DX011 (ip), vehicle: water, higher = larger tumour) 32 % of control; (endpoint: mean tumor weight, dose: 225.0 mg/kg/injection, schedule: Q01DX011 (ip), vehicle: water, higher = larger tumour) 11 % of control.
`CO[C@H](C(=O)[C@@H](O)[C@@H](C)O)[C@@H]1Cc2cc3cc(OC4CC(OC5CC(O)C(O)C(C)O5)C(O)C(C)O4)c(C)c(O)c3c(O)c2C(=O)[C@H]1OC1CC(OC2CC(OC3CC(C)(O)C(O)C(C)O3)C(O)C(C)O2)C(O)C(C)O1` (stereo partly drawn): the T/C (endpoint: median survival time, dose: 0.25 mg/kg/injection, schedule: Q01DX009 (ip), vehicle: saline, higher = longer survival) is 116 % of control.
Take `CN(C1=NS(=O)(=O)N=C(N(C)c2ccccc2)O1)c1ccccc1`: the T/C is 111 % of control (endpoint: median survival time, dose: 14.37 mg/kg/injection, schedule: Q01DX009 (ip), vehicle: Klucel (hydroxypropylcellulose) (HPC), higher = longer survival); 104 % of control (endpoint: median survival time, dose: 28.75 mg/kg/injection, schedule: Q01DX009 (ip), vehicle: Klucel (hydroxypropylcellulose) (HPC), higher = longer survival); 103 % of control (endpoint: median survival time, dose: 57.5 mg/kg/injection, schedule: Q01DX009 (ip), vehicle: Klucel (hydroxypropylcellulose) (HPC), higher = longer survival); 100 % of control (endpoint: median survival time, dose: 115.0 mg/kg/injection, schedule: Q01DX009 (ip), vehicle: Klucel (hydroxypropylcellulose) (HPC), higher = longer survival); 96 % of control (endpoint: median survival time, dose: 230.0 mg/kg/injection, schedule: Q01DX009 (ip), vehicle: Klucel (hydroxypropylcellulose) (HPC), higher = longer survival).
`CCn1c2ccccc2c2cc(NC(=O)N(CCCl)N=O)ccc21`: the T/C was 89 % of control (endpoint: median survival time, dose: 50.0 mg/kg/injection, schedule: Q01DX001 (ip), vehicle: saline with Tween-80, higher = longer survival) and 96 % of control (endpoint: median survival time, dose: 100.0 mg/kg/injection, schedule: Q01DX001 (ip), vehicle: saline with Tween-80, higher = longer survival).
For the molecule `c1cc[c]([Sn]([S][Sn]([c]2ccccc2)([c]2ccccc2)[c]2ccccc2)([c]2ccccc2)[c]2ccccc2)cc1`, the T/C is 91 % of control (endpoint: median survival time, dose: 50.0 mg/kg/injection, schedule: Q01DX009 (ip), vehicle: saline with Tween-80, higher = longer survival); 93 % of control (endpoint: median survival time, dose: 100.0 mg/kg/injection, schedule: Q01DX009 (ip), vehicle: saline with Tween-80, higher = longer survival); 102 % of control (endpoint: median survival time, dose: 200.0 mg/kg/injection, schedule: Q01DX009 (ip), vehicle: saline with Tween-80, higher = longer survival).
As for `Clc1[nH]nc2ccccc12`, the T/C reads like this: (endpoint: mean tumor weight, dose: 125.0 mg/kg/injection, schedule: Q01DX011 (ip), vehicle: saline, higher = larger tumour) 80 % of control and 85 % of control; (endpoint: mean tumor weight, dose: 250.0 mg/kg/injection, schedule: Q01DX011 (ip), vehicle: saline, higher = larger tumour) 45 % of control and 67 % of control.
Consider `CSc1ncc(Br)c(Sc2nc(N)nc3nc[nH]c23)n1`, for which the T/C runs as follows: (endpoint: mean tumor weight, dose: 5.0 mg/kg/injection, schedule: Q01DX011 (ip), vehicle: other, higher = larger tumour) 57 % of control; (endpoint: mean tumor weight, dose: 10.0 mg/kg/injection, schedule: Q01DX011 (ip), vehicle: other, higher = larger tumour) 100 % of control; (endpoint: mean tumor weight, dose: 20.0 mg/kg/injection, schedule: Q01DX011 (ip), vehicle: other, higher = larger tumour) 65 % of control.
In the case of `N#C/C(=C\c1ccncc1)c1csc2ccccc12`, the T/C runs as follows: (endpoint: median survival time, dose: 50.0 mg/kg/injection, schedule: Q01DX009 (ip), vehicle: Klucel (hydroxypropylcellulose) (HPC), higher = longer survival) 119 % of control; (endpoint: median survival time, dose: 100.0 mg/kg/injection, schedule: Q01DX009 (ip), vehicle: Klucel (hydroxypropylcellulose) (HPC), higher = longer survival) 97 % of control; (endpoint: median survival time, dose: 400.0 mg/kg/injection, schedule: Q01DX009 (ip), vehicle: Klucel (hydroxypropylcellulose) (HPC), higher = longer survival) 110 % of control.
For `C=CCNC(=O)NCC=C`, the T/C is 96 % of control under setting [1], 28 % of control under setting [2], 16 % of control under setting [3] and 43 % of control under setting [4].
Turning to `CN(C)CCOC(=O)COc1ccc(Cl)cc1`, the T/C reads like this: (endpoint: median survival time, dose: 200.0 mg/kg/injection, schedule: Q01DX005 (ip), vehicle: saline, higher = longer survival) 103 % of control and 116 % of control; (endpoint: median survival time, dose: 300.0 mg/kg/injection, schedule: Q01DX005 (ip), vehicle: saline, higher = longer survival) 119 % of control.
